The results in this text go back to patent US6518412B1, “Gene therapy approaches to supply apolipoprotein A-I agonists and their use to treat dyslipidemic disorders” (priority 1997, dated 2003).

Test [1] relates to EPC/Chol (20:1) small unilamellar vesicles. The experiment in a line: Lipid binding by fluorescence spectroscopy. How it is done:
The lipid binding properties of the peptides described in Section 6, supra, were tested by fluorescence measurements with labeled peptides, in the present case Tryptophane (Trp or W) or Naphtylalanine (Nal). The fluorescence spectra were recorded on a Fluoromax from Spex (Jobin-Yvon) equipped with a Xenon lamp of 150W, two monochromators (excitation and emission), a photomultiplier R-928 for detection sensitive in the red up to 850 nm and a thermoelectric magnetic stirred cell holder. Quartz Suprasil cuvettes were used for measurements in the micromolar concentration range. A device of variable slits (from 0.4 to 5 nm) allows modulation of the incident and emitted intensities according to the concentration of peptide used. The reported values are in general the average of between 2 to 4 spectra. The peptide concentration is determined by absorption spectrometry on a Philips PU 8800 using the absorption band of the Trp (∈280 nm=5,550 M^−1 cm^−1 in Tris buffer) or the Nal (∈224 nm=92,770 M^−1 cm^−1 in methanol).
Fluorescence spectra of the peptides were recorded between 290 nm and 450 nm in Tris-HCl buffer (20 mM, pH=7.5), in the presence and absence of lipidic vesicles. The small unilamellar vesicles were formed after rehydration in buffer of the lyophilized phospholipids, dispersion and tip sonification under a N2 stream. The lipids used were either Egg PC/Chol. (20:1) or POPC/Chol. (20:1). The spectra were recorded at a peptide concentration of 2 μM and at a temperature of 37° C. The fluorescence reference standard in the case of Trp was N-acetyltryptophanylamide (NATA).
Lipid binding studies were done through progressive lipidic vesicle addition to the peptide in solution at 2 μM (slits:5 nm in excitation and 1.5 nm in emission). Dilution effects were taken into account for the fluorescence intensity determination. The lipid concentrations were varied from 10 to 600 μM and the molar ratio of lipid to peptide (Ri) was varied from 5 to 300. The wavelength of excitation was set at 280 nm for both Trp and Nal.
The data were directly recorded and treated by an IBM-PC linked to the spectrofluorimeter through the DM3000F software from Spex. The spectra were corrected by substraction of the solvent contribution and by application of a coefficient given by the constructor taking into account the variation of the photomultiplier response versus the wavelength.
The fluorescence spectra of the peptides were characterized by the wavelength at their maximum of fluorescence emission and by their quantum yield compared to NATA in the case of peptides labeled with a tryptophane. The process of binding to lipids was analyzed by calculating the shift of the wavelength at the maximum of fluorescence emission, (λmax), and the variation of the relative fluorescence intensity of emission versus the lipid concentration. The relative fluorescence intensity is defined as the following ratio: (I-I0)λmax/I0λmax. I and I0 are both measured at the (λmax) corresponding to the initial free state of the peptide, i.e., without lipids. I is the intensity at a defined lipid to peptide ratio and I0 is the same parameter measured in absence of lipids. The absence of these variations is relevant of the absence of interactions of the peptides with the lipids.

Test [2] has as its target T1, LCAT (purified from human plasma) (Homo sapiens, UniProt P04180).
T1 construct: from tissue; host or cells: human plasma
T1 sequence (P04180 25-440): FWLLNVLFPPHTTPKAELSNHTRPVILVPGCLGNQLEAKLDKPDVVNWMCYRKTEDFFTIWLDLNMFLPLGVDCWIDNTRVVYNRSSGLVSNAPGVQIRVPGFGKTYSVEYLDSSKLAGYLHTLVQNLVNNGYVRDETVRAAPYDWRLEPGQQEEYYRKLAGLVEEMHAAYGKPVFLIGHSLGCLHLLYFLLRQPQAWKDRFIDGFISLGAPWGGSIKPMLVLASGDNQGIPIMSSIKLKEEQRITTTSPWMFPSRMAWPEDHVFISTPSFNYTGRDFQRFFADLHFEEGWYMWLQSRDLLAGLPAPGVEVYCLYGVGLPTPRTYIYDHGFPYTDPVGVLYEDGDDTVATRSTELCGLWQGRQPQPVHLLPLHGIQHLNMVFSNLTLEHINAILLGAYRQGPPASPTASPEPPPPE
The experiment in a line: LCAT activation assay. It is filed as biochemical. As to conditions: for LCAT activation as compared with native ApoA-I: native ApoA-I = 100% activation. On the procedure:
Examples of peptides which may be encoded by the nucleotides of the present invention are listed in Table VIII which also includes peptides which are chemically synthesized. […] All of the peptides listed were analyzed in vitro for their ability to activate LCAT. In the LCAT assay, substrate vesicles (small unilamellar vesicles or “SUVs”) composed of egg phophatidylcholine or 1-Palmitoyl-2-oleyl-phosphatidylcholine (POPC) and radiolabelled cholesterol are preincubated with equivalent masses either of peptide or ApoA-I (isolated from human plasma). The reaction is initiated by addition of LCAT (purified from human plasma). Native ApoA-I, which was used as positive control, represents 100% activation activity. “Specific activity” (i.e., units of activity (LCAT activation)/unit of mass) of the peptides can be calculated as the concentration of peptide that achieves maximum LCAT activation. For example, a series of concentrations of the peptide (e.g., a limiting dilution) can be assayed to determine the “specific activity” for the peptide—the concentration which achieves maximal LCAT activation (i.e., percentage conversion of cholesterol to cholesterol ester) at a specific timepoint in the assay (e.g., 1 hr.). When plotting percentage conversion of cholesterol at, e.g., 1 hr., against the concentration of peptide used, the “specific activity” can be identified as the concentration of peptide that achieves a plateau on the plottal curve.
The vesicles used in the LCAT assay are SUVs composed of egg phosphatidylcholine (EPC) or 1-palmitoyl-2-oleyl-phosphatidylcholine (POPC) and cholesterol with a molar ratio of 20:1. To prepare a vesicle stock solution sufficient for 40 assays, 7.7 mg EPC (or 7.6 mg POPC; 10 μmol), 78 μg (0.2 μmol) 4-^14C-cholesterol, 116 μg cholesterol (0.3 μmol) are dissolved in 5 ml xylene and lyophilized. Thereafter 4 ml of assay buffer is added to the dry powder and sonicated under nitrogen atmosphere at 4° C. Sonication conditions: Branson 250 sonicator, 10 mm tip, 6.5 minutes; Assay buffer: 10 mM Tris, 0.14M NaCl, 1 mM EDTA, pH 7.4). […]

Test [3] is described as follows: HDL cholesterol in rabbits after injection of phospholipid/peptide complex. The format is in vivo, Male New Zealand White rabbits. Conditions: for Increase in HDL Cholesterol (%): 8 mg/kg i.v. as peptide/DPPC complexes. On the procedure:
Small discoidal particles consisting of phospholipid (DPPC) and peptide 146 (SEQ ID NO:146) were prepared following the cholate dialysis method. The phospholipid was dissolved in chloroform and dried under a stream of nitrogen. The peptide was dissolved in buffer (saline) at a concentration of 1-2 mg/ml. The lipid film was redissolved in buffer containing cholate (43° C.) and the peptide solution was added at a 3-1 phospholipid/peptide ratio. The mixture was incubated overnight at 43° C. and then dialyzed at 43° C. (24 hr.), room temperature (24 hr.) and 4° C. (24 hr.), with three changes of buffer (large volumes) at temperature point. The complexes were filter sterilized (0.22μ) for injection and storage at 4° C. The particles were separated on a gel filtration column (Superose 6 HR). The position of the peak containing the particles was identified by measuring the phospholipid concentration in each fraction. From the elution volume, the Stokes radius can was determined. The concentration of peptide in the complex was determined by determining the phenylalanine content (by HPLC) following a 16 hr. acid hydrolysis. Male New Zealand White rabbits (2.5-3 kg) were injected intravenously with a dose of phospholipid/peptide complex (8 mg/kg bodyweight peptide 146 (SEQ ID NO:146) or 10 mg/kg bodyweight ApoA-I, expressed as peptide or protein content) in a single bolus injection not exceeding 10-15 ml. The animals were slightly sedated before the manipulations. Blood samples (collected on EDTA) were taken before and 5, 15, 30, 60, 240 and 1440 minutes after injection. The hematocrit (Hct) was determined for each sample. Samples were aliquoted and stored at −20° C. before analysis. Plasma Lipids. The total plasma cholesterol, plasma triglycerides and plasma phospholipids were determined enzymatically using commercially available assays according to the manufacturer's protocols (Boehringer Mannheim, Mannheim, Germany and Biomérieux, 69280, Marcy-l'étoile, France). Lipoprotein Profiles. The plasma lipoprotein profiles of the fractions obtained after the separation of the plasma into its lipoprotein fractions were determined by spinning in a sucrose density gradient. The fractions were collected and in each individual fraction the phospholipid and cholesterol content was measured enzymatically.

Where a SMILES comes first, the peptide text is derived from it. Where no end group is shown, it is not given here.

`CC(=O)N[C@@H](Cc1c[nH]c2ccccc12)C(N)=O` [NATA, N-acetyltryptophanylamide, reference compound] registered a λmax in test [1] (Ri 0, in buffer, 2 μM) of 350 nm.
`CC(=O)N1CCC[C@H]1C(=O)N[C@H](C(=O)N[C@@H](CC(C)C)C(=O)N[C@@H](CC(=O)O)C(=O)N[C@@H](CCC(=O)O)C(=O)N[C@@H](Cc1ccccc1)C(=O)N[C@@H](CCCN=C(N)N)C(=O)N[C@@H](CCC(=O)O)C(=O)N[C@@H](CCCCN)C(=O)N[C@@H](CC(C)C)C(=O)N[C@@H](CC(N)=O)C(=O)N[C@@H](CCC(=O)O)C(=O)N[C@@H](CCC(=O)O)C(=O)N[C@@H](CC(C)C)C(=O)N[C@@H](CCC(=O)O)C(=O)N[C@@H](C)C(=O)N[C@@H](CC(C)C)C(=O)N[C@@H](CCCCN)C(=O)N[C@@H](CCC(N)=O)C(=O)N[C@@H](CCCCN)C(=O)N[C@@H](CC(C)C)C(=O)N[C@@H](CCCCN)C(N)=O)C(C)C` [consensus 22-mer] (Ac-PVLDEFREKLNEELEALKQKLK-NH2): in test [2], the “LCAT activation as compared with native ApoA-I” value is 10%.
As for “PVLDLFRELWEELKQKLK* (not fully specified (N-terminus, C-terminus); printed as PVLDLFRELWEELKQKLK*; also: terminal modification marked *, not defined here) [peptide 199]”, in test [1] (EPC/Chol (20:1) SUVs), the “lipid to peptide molar ratio at which burying of the tryptophane residue is maximal” value is reported as “about 100”. Also, the λmax is recorded as 348 nm in test [1] (Ri 0, in buffer, 2 μM); 344 nm in test [1] (Ri 5); 339 nm in test [1] (Ri 10); 328 nm in test [1] (Ri 30); 326 nm in test [1] (Ri 100); 325 nm in test [1] (Ri 200). Also, in test [1] (small unilamellar vesicles), the lipid binding result is on record as “binds very effectively”.
PVLELFENLLERLLDALQKKLK [peptide 146]: the “Increase in HDL Cholesterol (%)” value in test [3] (5 min) came out at 31.3%; in test [3] (15 min), 60.4%; in test [3] (60 min), 42.9%; in test [3] (240 min, 8 mg/kg), 90%; in test [3] (240 min, listed as Peptide 146, 8 mg/kg), 90.2%; in test [3] (1440 min), 71.2%. For the same compound, the “duration of the increase in cholesterol of the HDL cholesterol fractions” value in test [3] (8 mg/kg, apparent at 5 min following injection) is reported as “approximately 24 hr”.
With PVLELFERLLEDLQKKLK [peptide 229], the “ACTIVITY (%) LCAT” value in test [2] (LCAT activation as compared with native human ApoA-I) is on record as 0%.
Turning to “peptide 18AM4: peptide ApoA-I mimic described in the literature (Corinjn et al., 1993) (EWLEAFYKKVLEKLKELF)”, the “LCAT activation as compared with native ApoA-I” value in test [2] is recorded as “less than 4%”.
